Data: patent publication US12427146B2, “C-terminal SRC kinase inhibitors” (INVENTISBIO CO., LTD., priority 2018, dated 2025)
pIC50: −log10 of the molar value.

Legend:
CSK protein = CSK protein (Homo sapiens (Human), UniProt P41240); test: CSK Inhibition Assay; assay type: biochemical
Procedure, shortened: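 Compounds, 11-point 1:3 dilutions in DMSO, were preincubated 30 min at RT with CSK and fluorescent peptide substrate, then the reaction was started with ATP (4 μM solution) and run 90 min at 25 °C before EDTA stop. Phospho-peptide conversion was read by mobility-shift separation (Caliper EZ Reader II) and converted to % inhibition for IC50.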

LCK protein = LCK protein (Homo sapiens (Human), UniProt P06239); test: LCK Inhibition Assay; assay type: biochemical
Procedure, shortened: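 Recombinant LCK (0.50 nM) preincubated 30 min at RT with compound and FLPeptide4 (2 μM) in 50 mM HEPES pH 7.5, 10 mM MgCl2, Brij-35, DTT, BSA; reaction started with ATP (400 μM solution added), run 90 min at 25 °C, EDTA-stopped. Phospho/non-phospho peptide separated by mobility shift; IC50 from % inhibition of conversion, 11-point 1:3 series.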

Sequence of LCK protein (P06239 whole entry): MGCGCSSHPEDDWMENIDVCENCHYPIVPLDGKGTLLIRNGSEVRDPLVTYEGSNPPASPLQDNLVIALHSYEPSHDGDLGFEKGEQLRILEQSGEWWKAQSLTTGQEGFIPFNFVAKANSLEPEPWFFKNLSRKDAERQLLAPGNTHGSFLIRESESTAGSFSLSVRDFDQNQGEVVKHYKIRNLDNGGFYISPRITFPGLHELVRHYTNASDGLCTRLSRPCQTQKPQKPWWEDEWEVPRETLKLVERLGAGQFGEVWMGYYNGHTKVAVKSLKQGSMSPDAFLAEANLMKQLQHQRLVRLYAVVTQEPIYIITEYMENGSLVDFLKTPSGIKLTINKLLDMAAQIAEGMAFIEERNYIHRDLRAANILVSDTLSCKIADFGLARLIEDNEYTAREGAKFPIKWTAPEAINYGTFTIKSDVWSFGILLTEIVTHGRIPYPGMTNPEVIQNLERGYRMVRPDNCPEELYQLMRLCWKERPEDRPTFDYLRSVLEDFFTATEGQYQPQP

SMILES | pIC50 (CSK protein) | pIC50 (LCK protein)
CCOc1ccn2c(-c3ccnc(N)n3)c(-c3cccc(NS(=O)(=O)c4c(F)cccc4F)c3F)nc2c1 [Compound 97] | 7.01 | < 6.00
Nc1nccc(-c2sc(-c3cncc(F)c3)nc2-c2cccc(NS(=O)(=O)c3c(Cl)cccc3Cl)c2F)n1 [Compound 62] | 8.03 | < 6.00
Nc1nccc(-c2sc(N3CCCCC3)nc2-c2cccc(NS(=O)(=O)c3c(F)cccc3F)c2F)n1 [Compound 111] | 7.79 | 6.00 to 7.00
Cc1ccc(-c2nc(-c3cccc(NS(=O)(=O)c4c(F)cccc4F)c3F)c(-c3ccnc(N)n3)s2)nn1 [Compound 13] | 7.29 | < 6.00
O=S(=O)(Nc1cccc(-c2nc(-c3ccccc3)sc2-c2ccnc(Nc3cccnc3)n2)c1F)c1c(F)cccc1F [Compound 42] | 7.42 | 6.00 to 7.00
CNc1nccc(-c2c(-c3cccc(NS(=O)(=O)c4c(F)ccc(C)c4F)c3F)nc3cc(F)ccn23)n1 [Compound 107] | 6.95 | < 6.00
COc1ccc(-c2nc(-c3cccc(NS(=O)(=O)c4c(F)cccc4F)c3F)c(-c3ccnc(N)n3)s2)cc1 [Compound 5] | 7.20 | < 6.00
CCc1ccn2c(-c3ccnc(N)n3)c(-c3cccc(NS(=O)(=O)c4c(F)cccc4F)c3F)nc2c1 [Compound 92] | 7.05 | < 6.00
CNc1nccc(-c2c(-c3cccc(NS(=O)(=O)c4c(F)ccc(C)c4F)c3F)nc3c(F)cccn23)n1 [Compound 102] | 7.02 | < 6.00
COc1cc(NS(=O)(=O)c2c(F)cccc2F)cc(-c2nc(-c3ccccc3)sc2-c2ccnc(N)n2)c1 [Compound 19] | 7.55 | 6.00 to 7.00
Cc1cc(F)c(S(=O)(=O)Nc2cccc(-c3nc(-c4ccccc4)sc3-c3ccnc(N)n3)c2F)c(F)c1 [Compound 35] | 7.09 | < 6.00
CNc1nccc(-c2sc(-c3ccccc3)nc2-c2cccc(NS(=O)(=O)c3c(F)cccc3F)c2F)n1 [Compound 46] | 7.56 | < 6.00
CC(C)Oc1ccn2c(-c3ccnc(N)n3)c(-c3cccc(NS(=O)(=O)c4c(F)cccc4F)c3F)nc2c1 [Compound 104] | 6.87 | < 6.00
COc1cc(N2CCOCC2)ccc1Nc1nccc(-c2sc(-c3ccccc3)nc2-c2cccc(NS(=O)(=O)c3c(F)cccc3F)c2F)n1 [Compound 9] | 7.30 | < 6.00
Nc1nccc(-c2sc(-c3cccc(F)c3)nc2-c2cccc(NS(=O)(=O)c3c(F)cccc3F)c2F)n1 [Compound 15] | 7.29 | < 6.00
COc1ccc(-c2nc(-c3cccc(NS(=O)(=O)c4c(F)cccc4F)c3F)c(-c3ccnc(N)n3)s2)nc1 [Compound 30] | 7.39 | 6.00 to 7.00
CNc1nccc(-c2sc(-c3cnccn3)nc2-c2cccc(NS(=O)(=O)c3c(F)cccc3F)c2F)n1 [Compound 76] | 7.72 | < 6.00
NCCNc1nccc(-c2sc(-c3cncc(F)c3)nc2-c2cccc(NS(=O)(=O)c3c(F)cccc3F)c2F)n1 [Compound 67] | 6.21 | < 6.00
COc1cc2nc(-c3cccc(NS(=O)(=O)c4c(F)cccc4F)c3F)c(-c3ccnc(N)n3)n2cc1Cl [Compound 100] | 6.86 | < 6.00
Nc1nccc(-c2[nH]c(-c3ccccc3)nc2-c2cccc(NS(=O)(=O)c3c(F)cccc3F)c2F)n1 [Compound 85] | 7.48 | 6.00 to 7.00
Nc1nccc(-c2c(-c3cccc(NS(=O)(=O)c4c(F)cccc4F)c3F)nc3cc(C(=O)O)ccn23)n1 [Compound 96] | 6.90 | < 6.00
Nc1nccc(-c2sc(-c3cncc(F)c3)nc2-c2cccc(NS(=O)(=O)c3c(F)cccc3F)c2F)n1 [Compound 17] | 7.60 | < 6.00
CNc1nccc(-c2sc(-c3ccc(C)nn3)nc2-c2cccc(NS(=O)(=O)c3c(F)ccc(C)c3F)c2F)n1 [Compound 65] | 7.83 | < 6.00

Other lines, results leading:

pIC50 (CSK protein) | pIC50 (LCK protein) | SMILES
8.12 | < 6.00 | Cc1ccc(Cl)c(S(=O)(=O)Nc2cccc(-c3nc(N4CCCCC4)sc3-c3ccnc(NCCO)n3)c2F)c1Cl [Compound 178]
6.77 | < 6.00 | COc1ccn2c(-c3ccnc(NC4CC4)n3)c(-c3cccc(NS(=O)(=O)c4c(Cl)cccc4Cl)c3F)nc2c1 [Compound 158]
8.28 | < 6.00 | O=S(=O)(Nc1cccc(-c2nc(N3CCCC3)sc2-c2ccnc(NC3CC3)n2)c1F)c1c(F)ccc(Cl)c1F [Compound 184]
8.43 | > 7.00 | CN1CCN(c2ccc(Nc3nccc(-c4sc(C(C)(C)C)nc4-c4cccc(NS(=O)(=O)c5c(F)cccc5F)c4F)n3)cn2)CC1 [Compound 119]
7.59 | < 6.00 | CNc1nccc(-c2sc(N(C)C)nc2-c2cccc(NS(=O)(=O)c3c(F)cccc3F)c2F)n1 [Compound 157]
7.83 | 6.00 to 7.00 | O=S(=O)(Nc1cccc(-c2nc(-c3ccccc3)sc2-c2ccnc(Nc3cncnc3)n2)c1F)c1c(F)cccc1F [compound 38]
8.07 | < 6.00 | Cc1ccc(Cl)c(S(=O)(=O)Nc2cccc(-c3nc(-c4cncc(F)c4)sc3-c3ccnc(NCCO)n3)c2F)c1Cl [Compound 138]
8.32 | < 6.00 | Cc1ncc(-c2nc(-c3cccc(NS(=O)(=O)c4c(Cl)ccc(C)c4Cl)c3F)c(-c3ccnc(NC4CC4)n3)s2)cn1 [Compound 151]
8.03 | < 6.00 | Cc1ncc(-c2nc(-c3cccc(NS(=O)(=O)c4c(F)ccc(C)c4F)c3F)c(-c3ccnc(NC4CC4)n3)s2)cn1 [Compound 156]
8.14 | < 6.00 | CN(C)c1nc(-c2cccc(NS(=O)(=O)c3c(F)ccc(Cl)c3F)c2F)c(-c2ccnc(NC3CC3)n2)s1 [Compound 187]
6.67 | < 6.00 | COc1ccn2c(-c3ccnc(NCCO)n3)c(-c3cccc(NS(=O)(=O)c4c(F)ccc(C)c4F)c3F)nc2c1 [Compound 130]
8.25 | < 6.00 | O=S(=O)(Nc1cccc(-c2nc(-c3cncc(F)c3)sc2-c2ccnc(NC3CC3)n2)c1F)c1c(F)ccc(Cl)c1F [Compound 171]
7.87 | 6.00 to 7.00 | CNc1nccc(-c2sc(N3CCCCC3)nc2-c2cccc(NS(=O)(=O)c3c(Cl)cccc3Cl)c2F)n1 [Compound 166]
7.62 | < 6.00 | CNc1nccc(-c2sc(N3CCCC3=O)nc2-c2cccc(NS(=O)(=O)c3c(F)cccc3F)c2F)n1 [Compound 113]
7.82 | < 6.00 | Cc1ccc(Cl)c(S(=O)(=O)Nc2cccc(-c3nc(-c4ccc(F)cn4)sc3-c3ccnc(N)n3)c2F)c1Cl [Compound 125]
8.04 | < 6.00 | Cc1ccc(F)c(S(=O)(=O)Nc2cccc(-c3nc(-c4cncc(F)c4)sc3-c3ccnc(NC4CC4)n3)c2F)c1F [Compound 169]
7.80 | < 6.00 | Cc1ccc(F)c(S(=O)(=O)Nc2cccc(-c3nc(-c4cncc(F)c4)sc3-c3ccnc(NCCO)n3)c2F)c1F [Compound 167]
7.88 | < 6.00 | Cc1ccc(F)c(S(=O)(=O)Nc2cccc(-c3nc(-c4ccccc4)sc3-c3ccnc(NCCO)n3)c2F)c1F [Compound 131]
7.09 | < 6.00 | CNc1nccc(-c2sc(C(C)(C)C)nc2-c2cccc(NS(=O)(=O)c3c(F)cccc3F)c2F)n1 [Compound 117]
7.76 | < 6.00 | Cc1ccc(-c2nc(-c3cccc(NS(=O)(=O)c4c(F)ccc(C)c4F)c3F)c(-c3ccnc(NCCO)n3)s2)nn1 [Compound 174]
7.92 | < 6.00 | CNc1nccc(-c2sc(N3CCCC3)nc2-c2cccc(NS(=O)(=O)c3c(F)cccc3F)c2F)n1 [Compound 128]
